Legend:
Assay type in all cases: in vivo
[1] = tested on: C. elegans (Bristol strain); test: Evaluation of test compounds against C. elegans (motility, 96-well plate); design: key: 9=complete kill in 4 hours; 8=complete kill in 24 hours; 7=markedly reduced motility in approximately 95% of worms in 24 hours; 0=normal motility, same as controls; conditions: motility at 4 and 24 hours
Procedure: Evaluation of Test Compounds Against C. elegans Cultures of C. elegans (Bristol strain from J. Lewis) are maintained on E. coli lawns on NG Agar Plates at 20° C. New cultures are established weekly. Nematodes for testing are washed from cultures using Na buffer. Compounds are dissolved in 80% acetone. The test material is micropipetted (25 μl) into a single well of a 96-well sterile tissue culture plate and the solvent allowed to evaporate. A freshly prepared volume (50 μl) of C. elegans in Na buffer is micropipetted into each treated well and several control wells per plate. Plates are incubated at 20° C. Observations for efficacy are made under a dissecting microscope at 4 and 24 hours post-immersion. Immediately prior to reading the plate, it is gently tapped to stimulate the movement of the worms. Activity is judged subjectively, but semi-quantitatively, based on the drug effects on motility of the adults and larvae.

[2] = tested on: Diabrotica virgifera virgifera Leconte, 2nd instar western corn rootworm (WCR); test: Western corn rootworm (WCR) soil test; design: key: 0 = no effect; 1 = 10-25% kill; 2 = 26-35% kill; 3 = 36-45% kill; 4 = 46-55% kill; 5 = 56-65% kill; 6 = 66-75% kill; 7 = 76-85% kill; 8 = 86-99% kill; 9 = 100% kill
Procedure: Test solutions are prepared by dissolving the test compound in a 35% acetone in water mixture to give a concentration of 10,000 ppm. Subsequent dilutions are made with water as needed. Diabrotica virgifera virgifera Leconte, 2nd Instar Western Corn Rootworm (WCR) One cc of fine talc is placed in a 30 mL wide-mouth screw-top glass jar. One mL of the appropriate acetone test solution is pipetted onto the talc so as to provide 1.25 mg of active ingredient per jar. The jars are set under a gentle air flow until the acetone is evaporated. The dried talc is loosened, 1 cc of millet seed is added to serve as food for the insects and 25 mL of moist soil is added to each jar. The jar is capped and the contents thoroughly mixed mechanically. Following this, ten 2nd instar rootworms are added to each jar and the jars are loosely capped to allow air exchange for the larvae. The treatments are held for 5 days when mortality counts are made. Missing larvae are presumed dead, since they decompose rapidly and cannot be found. The concentrations of active ingredient used in this test correspond approximately to 50 kg/ha. [table]

[3] = tested on: Aphis gossypii, cotton aphid (CA); test: Cotton aphid (CA) cotyledon dip test; design: key: 0 = no effect; 1 = 10-25% kill; 2 = 26-35% kill; 3 = 36-45% kill; 4 = 46-55% kill; 5 = 56-65% kill; 6 = 66-75% kill; 7 = 76-85% kill; 8 = 86-99% kill; 9 = 100% kill; conditions: mortality after 5 days
Procedure: Test solutions are prepared by dissolving the test compound in a 35% acetone in water mixture to give a concentration of 10,000 ppm. Subsequent dilutions are made with water as needed. Aphis gossypii, Cotton Aphid (CA) Cotton plants at the cotyledon stage are selected and cut back to one plant per pot. A heavily infested leaf is taken from the main colony and placed on top of each cotyledon. The aphids are allowed to transfer to the host plant overnight. At the time of test treatment, the leaf used to transfer the aphids is removed and discarded. The cotyledons are dipped in the test solution and allowed to dry. After 5 days, mortality counts are made. [table]

[4] = tested on: Diabrotica undecimpunctata howardi, eggs-southern corn rootworm (SCR-Eggs); test: Southern corn rootworm eggs (SCR-Eggs) treated diet test; design: key: 0 = no effect; 1 = 10-25% kill; 2 = 26-35% kill; 3 = 36-45% kill; 4 = 46-55% kill; 5 = 56-65% kill; 6 = 66-75% kill; 7 = 76-85% kill; 8 = 86-99% kill; 9 = 100% kill; conditions: mortality after 7 days
Procedure: Test solutions are prepared by dissolving the test compound in a 35% acetone in water mixture to give a concentration of 10,000 ppm. Subsequent dilutions are made with water as needed. Spodoptera eridania, Eggs-southern Armyworm and Diabrotica undecimpunctata howardi, Eggs-southern Corn Rootworm (SAW-Eggs) and (SCR-Eggs) Wells containing artificial diet are treated with the test solutions and dried. The appropriate insect eggs are then placed in the wells. The wells are covered with vented, adhesive, clear plastic covers. After 7 days, mortality counts are made. [table]

[5] = tested on: Spodoptera eridania, 2nd instar larvae, southern armyworm (SAW); test: Southern armyworm (SAW) leaf dip test; design: key: 0 = no effect; 1 = 10-25% kill; 2 = 26-35% kill; 3 = 36-45% kill; 4 = 46-55% kill; 5 = 56-65% kill; 6 = 66-75% kill; 7 = 76-85% kill; 8 = 86-99% kill; 9 = 100% kill
Procedure: (§1) Test solutions are prepared by dissolving the test compound in a 35% acetone in water mixture to give a concentration of 10,000 ppm. Subsequent dilutions are made with water as needed.
Spodoptera eridania, 2nd Instar Larvae, Southern Armyworm (SAW)
A Sieva lima bean leaf expanded to 7-8 cm in length is dipped in the test solution with agitation for 3 seconds and allowed to dry in a hood. The leaf is then placed in a 100×10 mm petri dish containing a damp filter paper on the bottom and ten 2nd instar caterpillars. At 5 days, observations are made of mortality, reduced feeding, or any interference with normal molting.

[6] = tested on: Tetranychus urticae (OP-resistant strain), 2-spotted spider mite (TSM); test: 2-spotted spider mite (TSM) plant dip test; design: key: 0 = no effect; 1 = 10-25% kill; 2 = 26-35% kill; 3 = 36-45% kill; 4 = 46-55% kill; 5 = 56-65% kill; 6 = 66-75% kill; 7 = 76-85% kill; 8 = 86-99% kill; 9 = 100% kill; conditions: mortality after 2 days
Procedure: as §1
Tetranychus urticae (OP-resistant strain), 2-spotted Spider Mite (TSM)
Sieva lima bean plants with primary leaves expanded to 7-8 cm are selected and cut back to one plant per pot. A small piece is cut from an infested leaf taken from the main colony and placed on each leaf of the test plants. This is done about 2 hours before treatment to allow the mites to move over to the test plant to lay eggs. The size of the cut, infested leaf is varied to obtain about 100 mites per leaf. At the time of test treatment, the piece of leaf used to transfer the mites is removed and discarded. The newly-infested plants are dipped in the test solution for 3 seconds with agitation and set in the hood to dry. After 2 days, one leaf is removed and mortality counts are made.

[7] = tested on: M. incognita (Root Knot Nematode) larvae; test: Evaluation of test compounds against M. incognita larvae in microtiter plate wells (movement score); conditions: larvae scored for movement after 20-24 hours; note: key: A score of '9' indicates inactive worms with a straight, sticklike morphology; A score of '8' indicates inactive worms with a limp, curled or curved morphology; A score of '7' indicates dead/paralyzed worms after 72 hours
Procedure: Evaluation of Test Compounds Against M. incognita (Root Knot Nematode)
Newly emerged M. incognita larvae are suspended in S Medium (buffered salt solution) to a concentration of 50-65 worms per 50 μl. 50 μl of the worm suspension are pipetted into microtiter plate wells containing the test compounds. The plates are then covered with plactic plate sealers to reduce loss of volume by evaporation. After 20-24 hours of incubation, the larvae are scored for movement. Wells containing obviously dead/paralyzed larvae are scored as positive. […] A score of “7” indicates dead/paralyzed worms after […].

CCCCC(CC)COC(=O)CSC(C[N+](=O)[O-])c1ccccc1Cl (racemic) [Example 92]
Rating Against C. elegans (150 ppm) [1]: 0 | WCR (50 ppm) rating [2]: 5 (5 = 56-65% kill) | CA (300 ppm) rating [3]: 0 | SCR Eggs (1000 ppm) rating [4]: 0 | SAW (300 ppm) rating [5]: 0 | TSM (300 ppm) rating [6]: 0 | M. incognita (150 ppm) score [7]: 0

O=[N+]([O-])CC(SCc1ccccc1)c1ccccc1Cl (racemic) [Example 93]
Rating Against C. elegans (150 ppm) [1]: 0 | WCR (50 ppm) rating [2]: 0 | CA (300 ppm) rating [3]: 0 | SCR Eggs (1000 ppm) rating [4]: 0 | SAW (300 ppm) rating [5]: 0 | TSM (300 ppm) rating [6]: 0 | M. incognita (150 ppm) score [7]: 0

O=C(O)CSC(C[N+](=O)[O-])c1ccccc1F (centres unmarked) [Example 67]
Rating Against C. elegans (150 ppm) [1]: 9 | WCR (50 ppm) rating [2]: 9 (9 = 100% kill) | CA (300 ppm) rating [3]: 0 | SAW (300 ppm) rating [5]: 0 | TSM (300 ppm) rating [6]: 0 | M. incognita (150 ppm) score [7]: 9

COc1cccc(C(C[N+](=O)[O-])SCC(=O)O)c1 (centres unmarked) [Example 68]
Rating Against C. elegans (150 ppm) [1]: 8 | WCR (50 ppm) rating [2]: 3 (3 = 36-45% kill) | CA (300 ppm) rating [3]: 0 | SAW (300 ppm) rating [5]: 0 | TSM (300 ppm) rating [6]: 0 | M. incognita (150 ppm) score [7]: 9

COc1ccc(C(C[N+](=O)[O-])SCC(=O)O)cc1 (centres unmarked) [Example 69]
Rating Against C. elegans (150 ppm) [1]: 9 | WCR (50 ppm) rating [2]: 0 | CA (300 ppm) rating [3]: 0 | SAW (300 ppm) rating [5]: 0 | TSM (300 ppm) rating [6]: 0 | M. incognita (150 ppm) score [7]: 9

COC(=O)CSC(C[N+](=O)[O-])c1ccc(Cl)cc1 (centres unmarked) [Example 70]
Rating Against C. elegans (150 ppm) [1]: 7 | WCR (50 ppm) rating [2]: 0 | CA (300 ppm) rating [3]: 0 | SAW (300 ppm) rating [5]: 0 | TSM (300 ppm) rating [6]: 0 | M. incognita (150 ppm) score [7]: 9

CCOC(=O)CSC(C[N+](=O)[O-])c1ccc(Cl)cc1 (centres unmarked) [Example 71]
Rating Against C. elegans (150 ppm) [1]: 7 | WCR (50 ppm) rating [2]: 0 | CA (300 ppm) rating [3]: 0 | SAW (300 ppm) rating [5]: 0 | TSM (300 ppm) rating [6]: 0 | M. incognita (150 ppm) score [7]: 0

CCCCOC(=O)CSC(C[N+](=O)[O-])c1ccc(Cl)cc1 (centres unmarked) [Example 72]
Rating Against C. elegans (150 ppm) [1]: 0 | WCR (50 ppm) rating [2]: 0 | CA (300 ppm) rating [3]: 0 | SAW (300 ppm) rating [5]: 0 | TSM (300 ppm) rating [6]: 0 | M. incognita (150 ppm) score [7]: 0

CC(C)CCCCCOC(=O)CSC(C[N+](=O)[O-])c1ccc(Cl)cc1 (centres unmarked) [Example 73]
Rating Against C. elegans (150 ppm) [1]: 0 | WCR (50 ppm) rating [2]: 0 | CA (300 ppm) rating [3]: 0 | SAW (300 ppm) rating [5]: 0 | TSM (300 ppm) rating [6]: 0 | M. incognita (150 ppm) score [7]: 0

CCCCC(CC)COC(=O)CSC(C[N+](=O)[O-])c1ccc(Cl)cc1 (centres unmarked) [Example 74]
Rating Against C. elegans (150 ppm) [1]: 0 | WCR (50 ppm) rating [2]: 0 | CA (300 ppm) rating [3]: 0 | SAW (300 ppm) rating [5]: 0 | TSM (300 ppm) rating [6]: 0 | M. incognita (150 ppm) score [7]: 0

O=[N+]([O-])CC(SCc1ccccc1)c1ccc(Cl)cc1 (centres unmarked) [Example 75]
Rating Against C. elegans (150 ppm) [1]: 0 | WCR (50 ppm) rating [2]: 0 | CA (300 ppm) rating [3]: 0 | SAW (300 ppm) rating [5]: 0 | TSM (300 ppm) rating [6]: 0 | M. incognita (150 ppm) score [7]: 0

CCCSC(C[N+](=O)[O-])c1ccc(Cl)cc1 (centres unmarked) [Example 76]
Rating Against C. elegans (150 ppm) [1]: 7 | WCR (50 ppm) rating [2]: 0 | CA (300 ppm) rating [3]: 0 | SAW (300 ppm) rating [5]: 0 | TSM (300 ppm) rating [6]: 0 | M. incognita (150 ppm) score [7]: 0

O=C(O)CSC(C[N+](=O)[O-])c1ccc(Cl)cc1 (centres unmarked) [Example 78]
Rating Against C. elegans (150 ppm) [1]: 7 | WCR (50 ppm) rating [2]: 0 | CA (300 ppm) rating [3]: 0 | SAW (300 ppm) rating [5]: 0 | TSM (300 ppm) rating [6]: 0 | M. incognita (150 ppm) score [7]: 9

COC(=O)CSC(C[N+](=O)[O-])c1ccccc1Cl (centres unmarked) [Example 88]
WCR (50 ppm) rating [2]: 0 | CA (300 ppm) rating [3]: 0 | SCR Eggs (1000 ppm) rating [4]: 0 | SAW (300 ppm) rating [5]: 0 | TSM (300 ppm) rating [6]: 0 | M. incognita (150 ppm) score [7]: 8
